In US20260248879A1, “METHODS OF USING A GCG/GLP1 CO-AGONIST FOR THERAPY” (ELI LILLY AND COMPANY, priority 2022, published 2026):

Test system: patients with T2DM
Test: Phase 1 multiple-ascending dose study in T2DM (Example 1): body weight, waist circumference, body composition
Type: in vivo, human
Text: This study is a Phase 1, single-site, patient- and investigator-blinded, placebo controlled, randomized, non-crossover, multiple-ascending dose study with titration in each cohort in patients with T2DM to investigate the safety, tolerability, PK, and PD of the GLP-1/glucagon co-agonist peptide of SEQ ID NO:1 (Compound 1) administered as multiple SC injections QW for 12 weeks in Cohort 1 and 16 weeks in Cohort 2.
The first dosing regimen (also referred to as Cohort 1) is 12 weeks in duration and requires dose increments of 1.5 mg starting from 1.5 mg: • 1.5 mg QW Compound 1 for 4 weeks; • 3.0 mg QW Compound 1 for 4 weeks; and • 4.5 mg QW Compound 1 for 4 weeks.
The second dosing regimen (also referred to as Cohort 2) is 16 weeks in duration and requires dose increments of 2 mg starting from 2 mg: • 2 mg QW Compound 1 for 3 weeks; • 4 mg QW Compound 1 for 3 weeks; • 6 mg QW Compound 1 for 3 weeks; • 8 mg QW Compound 1 for 3 weeks; and • 10 mg QW Compound 1 for 4 weeks.
In respect of each dosing regimen, Compound 1 is administered SC into the abdomen of the patient after an overnight fast for at least 8 hours.
In respect of Cohort 1, body weight is measured at baseline and Days 1, 8, 15, 22, 29, 36, 43, 50, 57, 64, 71 and 78.
Wherever possible, the same scale is used for all weight measurements throughout the study and the scale is not moved or recalibrated. Subjects are weighed in light clothing at approximately the same time in the morning before dosing (on Day 1 only) and after an overnight fast and evacuation of bowel and the bladder, if possible. During the treatment period, weight is measured twice on each scheduled occasion, with the subject stepping off the scale between measurements. The average of the two weight measurements is recorded in the source document.
In respect of Cohort 1, waist circumference is measured at baseline and Days 1, 8, 15, 22, 29, 36, 43, 50, 57, 64, 71 and 78.
Waist circumference is measured at the midpoint between the lower margin of the least palpable rib and the top of the iliac crest. The patient stands with feet close together, arms at the side and body weight evenly distributed, and should wear little clothing. The patient should be relaxed, and the measurements should be taken at the end of a normal expiration. During screening, baseline, the treatment period, and at follow-up, waist circumference will be measured twice on each scheduled occasion. The average of the two measurements will be recorded in the source document.

[1] = Cohort 1 (1.5-4.5 mg QW), D78-80, baseline 59.0
[2] = Cohort 1, escalated to 4.5 mg, Day 78
[3] = Cohort 2 (2-10 mg QW), D106-108, baseline 60.1
[4] = Cohort 2, Day 134 (after end of dosing)
[5] = Cohort 2, Day 162 (after end of dosing)
[6] = Cohort 2, escalated to 4.0 mg, Day 43
[7] = Cohort 2, escalated to 6.0 mg, Day 64
[8] = Cohort 2, escalated to 8.0 mg, Day 85
[9] = Cohort 2, escalated to 10 mg, Day 109

CC(C)C[C@H](NC(=O)[C@H](CC(C)C)NC(=O)[C@H](Cc1c[nH]c2ccccc12)NC(=O)[C@H](CCC(=O)O)NC(=O)[C@@H](NC(=O)[C@H](Cc1ccccc1)NC(=O)[C@H](CCC(=O)O)NC(=O)[C@H](CCCCNC(=O)COCCOCCNC(=O)COCCOCCNC(=O)CC[C@H](NC(=O)CCCCCCCCCCCCCCCCCCC(=O)O)C(=O)O)NC(=O)[C@H](C)NC(=O)[C@H](CCCCN)NC(=O)[C@H](CCCCN)NC(=O)[C@H](CCC(=O)O)NC(=O)[C@H](CC(=O)O)NC(=O)[C@H](CC(C)C)NC(=O)[C@H](Cc1ccc(O)cc1)NC(=O)[C@H](CCCCN)NC(=O)[C@H](CO)NC(=O)[C@H](Cc1ccc(O)cc1)NC(=O)[C@H](CC(=O)O)NC(=O)[C@H](CO)NC(=O)[C@@H](NC(=O)[C@H](Cc1ccccc1)NC(=O)[C@@H](NC(=O)CNC(=O)[C@H](CCC(N)=O)NC(=O)C(C)(C)NC(=O)[C@@H](N)Cc1c[nH]cn1)[C@@H](C)O)[C@@H](C)O)C(C)C)C(=O)N[C@@H](CCC(=O)O)C(=O)NCC(=O)NCC(=O)N1CCC[C@H]1C(=O)N[C@@H](CO)C(=O)N[C@@H](CO)C(=O)NCC(N)=O [Compound 1]
Lean body Mass [1]: 59.4 kg | Lean body mass [1]: 59.4 kg | % Lean body mass (Cohort 1 (1.5-4.5 mg QW), D78-80, baseline 60.9%): 64.3% | Waist circumference (Cohort 1 (1.5-4.5 mg QW), D78-80, baseline 110.4): 105.7 cm | mean change from baseline in body weight (Cohort 1 (1.5-4.5 mg QW), Day 78): −2.88 kg at Day 78 | body weight, mean percent change from baseline [2]: −3.03% | waist circumference, approximate reduction from baseline [2]: ~3% | mean body weight (Cohort 1, escalated to 4.5 mg, Day 78, baseline 97.19): 94.0 kg | mean waist circumference (Cohort 1, escalated to 4.5 mg, Day 78, baseline 108.66): 105.66 cm | Lean body Mass [3]: 56.4 kg | Lean body mass [3]: 56.4 kg | % Lean body mass (Cohort 2 (2-10 mg QW), D106-108, baseline 63.0%): 67.8% | Waist circumference (Cohort 2 (2-10 mg QW), D106-108, baseline 108.6): 96.7 cm | body weight decrease from baseline compared to placebo (Cohort 2 (2-10 mg QW), Day 50 through Day 162): statistically significant decreases | mean change from baseline in body weight (Cohort 2 (2-10 mg QW), Day 109): −10.73 kg at Day 109. | mean body weight (Cohort 2, Day 134 (after end of 16 weeks dosing), baseline 94.9): 84.05 kg | body weight, mean percent change from baseline [4]: −11.14% | waist circumference, approximate reduction from baseline [4]: ~9% | mean waist circumference (Cohort 2, Day 134 (after end of dosing), baseline 106.93): 97.59 cm | body weight, mean percent change from baseline [5]: −6.56% | waist circumference, approximate reduction from baseline [5]: ~4% | mean body weight (Cohort 2, Day 162 (after end of dosing), baseline 94.9): 88.96 kg | mean waist circumference (Cohort 2, Day 162 (after end of dosing), baseline 106.93): 102.79 cm | body weight, mean percent change from baseline [6]: −4.04% | waist circumference, approximate reduction from baseline [6]: ~3% | mean body weight (Cohort 2, escalated to 4.0 mg, Day 43, baseline 94.9): 90.38 kg | mean waist circumference (Cohort 2, escalated to 4.0 mg, Day 43, baseline 106.93): 103.38 cm | body weight, mean percent change from baseline [7]: −7.07% | waist circumference, approximate reduction from baseline [7]: ~5% | mean body weight (Cohort 2, escalated to 6.0 mg, Day 64, baseline 94.9): 87.69 kg | mean waist circumference (Cohort 2, escalated to 6.0 mg, Day 64, baseline 106.93): 101.31 cm | body weight, mean percent change from baseline [8]: −9.05% | waist circumference, approximate reduction from baseline [8]: ~8% | mean body weight (Cohort 2, escalated to 8.0 mg, Day 85, baseline 94.9): 85.88 kg | mean waist circumference (Cohort 2, escalated to 8.0 mg, Day 85, baseline 106.93): 98.58 cm | body weight, mean percent change from baseline [9]: −12.71% | waist circumference, approximate reduction from baseline [9]: ~10% | mean body weight (Cohort 2, escalated to 10 mg, Day 109, baseline 94.9): 82.55 kg | mean waist circumference (Cohort 2, escalated to 10 mg, Day 109, baseline 106.93): 96.56 cm | body weight reduction (dose 10 mg or greater): greater than 12% | body weight reduction (dose greater than 6 mg): greater than 9% | reduction in waist circumference (dose greater than 6.0 mg): greater than 5%
